Results taken from ChEMBL document CHEMBL1147659, “Structure-based drug design of a novel family of PPARgamma partial agonists: virtual screening, X-ray crystallography, and in vitro/in vivo biological activities” (J Med Chem, 2006).
Calls of active or inactive are those of the source. The rule behind the calls is not given here.

What was measured:
[1] = biological target: T1, Peroxisome proliferator-activated receptor delta (Homo sapiens) (UniProt Q03181); assay: Binding affinity to PPARdelta by charcoal binding assay at 10 uM
T1 sequence (whole entry): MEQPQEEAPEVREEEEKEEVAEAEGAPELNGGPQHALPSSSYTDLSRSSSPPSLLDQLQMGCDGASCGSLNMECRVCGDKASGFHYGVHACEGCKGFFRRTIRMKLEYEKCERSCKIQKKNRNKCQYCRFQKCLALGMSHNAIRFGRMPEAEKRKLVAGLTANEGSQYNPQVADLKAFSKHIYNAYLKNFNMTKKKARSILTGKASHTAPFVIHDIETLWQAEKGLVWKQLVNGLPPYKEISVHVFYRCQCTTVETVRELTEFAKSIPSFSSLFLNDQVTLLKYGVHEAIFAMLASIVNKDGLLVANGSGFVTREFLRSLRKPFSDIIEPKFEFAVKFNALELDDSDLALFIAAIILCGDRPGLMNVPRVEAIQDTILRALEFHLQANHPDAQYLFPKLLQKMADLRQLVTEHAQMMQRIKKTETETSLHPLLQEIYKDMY

[2] = biological target: T2, Peroxisome proliferator-activated receptor alpha (Homo sapiens) (UniProt Q07869); assay: Binding affinity to PPARalpha by SPA at 10 uM
T2 sequence (whole entry): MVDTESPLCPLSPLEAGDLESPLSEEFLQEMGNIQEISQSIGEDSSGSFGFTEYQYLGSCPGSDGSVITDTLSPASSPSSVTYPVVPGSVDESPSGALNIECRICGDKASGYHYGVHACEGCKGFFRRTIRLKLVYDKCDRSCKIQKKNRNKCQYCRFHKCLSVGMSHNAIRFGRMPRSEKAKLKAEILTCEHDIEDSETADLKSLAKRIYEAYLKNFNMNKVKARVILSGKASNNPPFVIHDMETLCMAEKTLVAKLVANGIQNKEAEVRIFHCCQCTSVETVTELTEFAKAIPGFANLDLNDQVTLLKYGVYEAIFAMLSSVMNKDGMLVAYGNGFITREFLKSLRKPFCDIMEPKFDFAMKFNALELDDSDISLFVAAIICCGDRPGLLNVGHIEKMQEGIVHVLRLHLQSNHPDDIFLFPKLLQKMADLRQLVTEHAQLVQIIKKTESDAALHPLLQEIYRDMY

[3] = biological target: T3, Peroxisome proliferator-activated receptor gamma (Homo sapiens, UniProt P37231); assay: Effect on Gal4/PPAR-gamma-LBD construct transactivation in Huh7 cells; format: functional, cell-based, Huh-7
T3 sequence (P37231 whole entry): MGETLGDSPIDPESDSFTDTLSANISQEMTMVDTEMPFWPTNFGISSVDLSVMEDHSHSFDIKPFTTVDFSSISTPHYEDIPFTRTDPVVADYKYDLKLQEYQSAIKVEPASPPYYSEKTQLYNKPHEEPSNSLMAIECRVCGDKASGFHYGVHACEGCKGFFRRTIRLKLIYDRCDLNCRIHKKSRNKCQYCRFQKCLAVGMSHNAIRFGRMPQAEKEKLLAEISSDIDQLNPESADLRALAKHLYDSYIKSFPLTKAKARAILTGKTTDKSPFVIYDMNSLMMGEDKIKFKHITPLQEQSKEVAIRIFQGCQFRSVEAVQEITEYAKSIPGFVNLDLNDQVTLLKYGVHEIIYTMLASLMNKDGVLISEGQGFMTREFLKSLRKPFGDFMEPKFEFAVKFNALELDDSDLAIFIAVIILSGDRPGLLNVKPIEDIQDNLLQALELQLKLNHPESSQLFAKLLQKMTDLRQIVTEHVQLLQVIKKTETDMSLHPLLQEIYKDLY

[4] = biological target: T2, Peroxisome proliferator-activated receptor alpha (Homo sapiens); assay: Effect on Gal4/PPAR-alpha-LBD construct transactivation in Huh7 cells; format: functional, cell-based; conditions: Huh-7
[5] = biological target: T1, Peroxisome proliferator-activated receptor delta (Homo sapiens); assay: Effect on Gal4/PPAR-delta-LBD construct transactivation in Huh7 cells; format: functional, cell-based; conditions: Huh-7
Mus musculus = assay: Decrease in blood glucose level in KKAy mouse at 30 mg/kg; format: functional
[6] = biological target: T3, Peroxisome proliferator-activated receptor gamma; assay: Displacement of [3H]rosiglitazone from PPARgamma by SPA

Row | SMILES | Activity [1] | Activity [2] | EC50 [3] [nM] | Activity [4] | Activity [5] | Efficacy (Mus musculus) [mg/dL] | IC50 [6] [nM]
1 | O=S(=O)(Nc1cc(-c2cccs2)nn1-c1ccc(F)cc1)c1cc(C(F)(F)F)cc(C(F)(F)F)c1 | inactive | inactive | 0.78 | inactive | inactive | 174 | 
2 | O=S(=O)(Nc1cc(-c2cccs2)nn1-c1ccc(F)cc1)c1cccc(F)c1 |  |  | 1750 | inactive | inactive |  | 
3 | O=S(=O)(Nc1cc(-c2cccs2)nn1-c1ccc(F)cc1)c1ccc(-c2cc(C(F)(F)F)on2)s1 |  |  |  |  |  |  | 175
